Reference: the NIST ThermoML archive (doi:10.1016/j.jct.2007.01.009)
± gives the expanded uncertainty stated by the source.

Experiments:
[1] = xn = mol fraction of the nth substance listed; details: 283.15 K; 101 kPa; Liquid; Pycnometric method; x2 = 0
[2] = 101.33 kPa, Liquid

Structure (SMILES)	mass density [1] [kg/m3]	mass density ([2]; 283.15 K) [kg/m3]	mass density ([2]; 288.15 K) [kg/m3]	mass density ([2]; 293.15 K) [kg/m3]	mass density ([2]; 298.15 K) [kg/m3]	mass density ([2]; 303.15 K) [kg/m3]	mass density ([2]; 308.15 K) [kg/m3]
CCCCC(O)CO (configuration not stated) [1,2-hexanediol]		958.87 ± 1.2	955.23 ± 1.2	951.68 ± 1.2	948.08 ± 1.2	944.54 ± 1.2	940.88 ± 1.2
O [water] + CC(O)CCC(C)O	999.7 ± 0.3						
CC(O)CCC(C)O (configuration not stated) [2,5-hexanediol]		968.85 ± 0.68	965.56 ± 0.65	962.17 ± 0.63	959.09 ± 0.65	955.72 ± 0.67	952.39 ± 0.68
CC(O)CCCCO (configuration not stated) [1,5-hexanediol]		978.41 ± 0.69	975.51 ± 0.66	972.31 ± 0.64	968.91 ± 0.66	965.51 ± 0.67	962.15 ± 0.69

More lines, now with the values ahead:

mass density [1] [kg/m3]	mass density ([2]; 283.15 K) [kg/m3]	mass density ([2]; 288.15 K) [kg/m3]	mass density ([2]; 293.15 K) [kg/m3]	mass density ([2]; 298.15 K) [kg/m3]	mass density ([2]; 303.15 K) [kg/m3]	mass density ([2]; 308.15 K) [kg/m3]	Structure (SMILES)
999.69 ± 0.3							O [water] + CCCCC(O)CO
999.7 ± 0.3							O [water] + OCCCCCCO
999.7 ± 0.3							O [water] + CC(O)CCCCO
